In patent US9512459B2 (priority 2011, dated 2016):
Read-outs that look alike come from different tables or passages of the source.

Assays:
[1] = molecular target: Sclerotinia sclerotiorum glucose dehydrogenase (FAD-GDH) Ssc-n1, wild type, SEQ ID NO: 1 (16 N-terminal residues deleted, Ser17 substituted by Met) (Sclerotinia sclerotiorum, UniProt A7F9L2); assay: GDH activity vs glucose, saturation curve (Ssc-n1); type: biochemical; conditions: crude enzyme, glucose 1-40 mM, pH 6.5, DCIP/PMS
Experimental: (§1) The transformant BL21 (DE3) expressing each mutated enzyme was precultured. The transformant was inoculated in an amount of 1% with respect to 60 ml of a medium A using a 300-ml baffled flask and shake-cultured under conditions involving 20° C., 28 hours, and 125 rpm. After collection of 50 ml of the medium, the bacterial cells were suspended by the addition of BugBuster (registered trademark) protein extraction reagent (Novagen/Merck KGaA) at a ratio of 5 ml per g of wet cells and incubated at room temperature for 15 minutes with gentle shaking. Insoluble fractions were removed by centrifugation (15 Krpm, 4° C., 20 minutes). Then, the obtained supernatant was dialyzed overnight at 4° C. against a 20 mM potassium phosphate buffer solution (pH 6.5). After the completion of the dialysis, the dialysate was centrifuged, and the supernatant was used as a crude enzyme preparation. Insoluble fractions were suspended in a 20 mM potassium phosphate buffer solution (pH 6.5) at a ratio of 1 ml per 2 ml of the suspension containing the insoluble fractions.
(§2) A small-scale expression system was used for some multiple-mutated enzymes. The transformant BL21 (DE3) expressing each mutated enzyme was precultured, and the transformant was inoculated in an amount of 1 vol % with respect to 3 ml of a medium A. The bacterial cells were shake-cultured at 37° C. for 4 hours and then shake-cultured at 20° C. for 20 hours. After the culture, 2 ml of the medium was collected, then suspended by the addition of 400 μl of BugBuster (registered trademark), and then shaken at room temperature for 15 minutes. Then, the suspension was centrifuged (15000 rpm, 4° C., 20 minutes), and the obtained supernatant was used as a crude enzyme preparation.
(§3) The GDH activity was measured in a DCIP (0.3 mM)/PMS (0.6 mM) system using a 20 mM potassium phosphate buffer solution (pH 6.5) as a buffer solution and glucose (Glc; 1, 2, 4, 10, 20, and 40 mM) and xylose (Xyl; 4 and 40 mM) as substrates.
(§4) The numeric values in the tables represent a mean of several data about specific activity (U/mg) and productivity (U/L) obtained under the same conditions with 40 mM glucose as a substrate. The obtained crude enzyme preparation was used to observe the correlation between the concentration of the substrate (glucose; 1, 2, 4, 10, 20, and 40 mM) and the activity. The obtained Michaelis-Menten constant (Km value) and apparent maximum activity (Vmax) were determined from a saturation curve determined therefrom.

[2] = molecular target: T1, Aspergillus niger glucose dehydrogenase (FAD-GDH) Ang-n1, wild type, SEQ ID NO: 2 (20 N-terminal residues deleted, Ala21 substituted by Met) (Aspergillus niger, UniProt A2QWL1); assay: GDH activity vs glucose, saturation curve (Ang-n1); type: biochemical; conditions: 60 ml culture, crude enzyme; glucose 1-40 mM, pH 6.5, DCIP/PMS
T1 construct: pET30c, E. coli BL21(DE3), crude extract
T1 sequence (A2QWL1 with tags, fused parts or gaps): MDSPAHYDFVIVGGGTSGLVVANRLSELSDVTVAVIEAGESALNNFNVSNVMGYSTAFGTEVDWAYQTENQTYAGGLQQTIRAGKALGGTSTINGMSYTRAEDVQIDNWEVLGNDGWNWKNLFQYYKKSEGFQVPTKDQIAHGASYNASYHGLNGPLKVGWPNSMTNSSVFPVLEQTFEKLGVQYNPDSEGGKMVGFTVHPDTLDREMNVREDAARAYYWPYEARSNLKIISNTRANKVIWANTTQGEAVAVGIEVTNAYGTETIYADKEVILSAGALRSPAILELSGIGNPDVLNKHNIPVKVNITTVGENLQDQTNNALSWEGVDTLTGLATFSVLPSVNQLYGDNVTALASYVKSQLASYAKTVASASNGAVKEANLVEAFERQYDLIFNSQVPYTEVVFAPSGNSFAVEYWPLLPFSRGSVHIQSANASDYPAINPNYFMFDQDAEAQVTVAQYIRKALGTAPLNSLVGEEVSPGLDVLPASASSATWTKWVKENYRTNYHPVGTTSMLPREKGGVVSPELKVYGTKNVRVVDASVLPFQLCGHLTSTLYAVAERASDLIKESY
Experimental: as §1, with “After the completion of the dialysis, the dialysate was centrifuged, and the supernatant was used as a crude enzyme preparation. Insoluble fractions were suspended in a 20 mM potassium phosphate buffer solution (pH 6.5) at a ratio of 1 ml per 2 ml of the suspension containing the insoluble fractions.” left out
as §3
as §4, with “The obtained crude enzyme preparation was used to observe the correlation between the concentration of the substrate (glucose; 1, 2, 4, 10, 20, and 40 mM) and the activity.” left out

[3] = molecular target: Sclerotinia sclerotiorum glucose dehydrogenase (FAD-GDH) Ssc-n2 variant N191K/S529G/G69N, SEQ ID NO: 1 (Sclerotinia sclerotiorum, UniProt A7F9L2, G69N/N191K/S529G); conditions: crude enzyme, glucose 1-40 mM, pH 6.5, DCIP/PMS
Experimental: as §1, §2, §3, §4

[4] = molecular target: Sclerotinia sclerotiorum glucose dehydrogenase (FAD-GDH) Ssc-n2 variant N191K/S529G/G69H, SEQ ID NO: 1 (Sclerotinia sclerotiorum, UniProt A7F9L2, G69H/N191K/S529G); conditions: crude enzyme, glucose 1-40 mM, pH 6.5, DCIP/PMS
Experimental: as §1, §2, §3, §4

[5] = molecular target: T2, Aspergillus niger glucose dehydrogenase (FAD-GDH) Ang-n2, SEQ ID NO: 2 (26 N-terminal residues deleted, Met-Thr-Asp-Ser-Thr-Leu-Asn added) (Aspergillus niger, UniProt A2QWL1); assay: GDH activity vs glucose, saturation curve (Ang-n2); type: biochemical; conditions: crude enzyme, glucose 1-40 mM, pH 6.5, DCIP/PMS
T2 construct: pET30c, E. coli BL21(DE3), crude extract or purified (T9)
T2 sequence (A2QWL1 27-588): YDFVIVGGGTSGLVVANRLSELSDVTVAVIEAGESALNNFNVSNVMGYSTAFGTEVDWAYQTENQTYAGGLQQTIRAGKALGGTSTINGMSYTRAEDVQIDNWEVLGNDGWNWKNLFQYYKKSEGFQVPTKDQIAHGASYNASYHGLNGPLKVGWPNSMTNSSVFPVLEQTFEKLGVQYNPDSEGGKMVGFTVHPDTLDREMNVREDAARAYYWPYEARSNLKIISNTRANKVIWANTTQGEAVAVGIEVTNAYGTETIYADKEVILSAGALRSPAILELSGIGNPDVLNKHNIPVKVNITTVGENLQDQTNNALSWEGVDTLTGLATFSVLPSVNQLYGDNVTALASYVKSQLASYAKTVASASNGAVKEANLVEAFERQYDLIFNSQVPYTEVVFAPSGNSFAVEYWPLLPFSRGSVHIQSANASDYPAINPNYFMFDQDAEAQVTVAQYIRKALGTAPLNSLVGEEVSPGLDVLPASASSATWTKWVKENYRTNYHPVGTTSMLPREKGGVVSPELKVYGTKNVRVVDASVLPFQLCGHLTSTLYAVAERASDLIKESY
Experimental: as §1, with “After the completion of the dialysis, the dialysate was centrifuged, and the supernatant was used as a crude enzyme preparation. Insoluble fractions were suspended in a 20 mM potassium phosphate buffer solution (pH 6.5) at a ratio of 1 ml per 2 ml of the suspension containing the insoluble fractions.” left out
as §3
as §4, with “The obtained crude enzyme preparation was used to observe the correlation between the concentration of the substrate (glucose; 1, 2, 4, 10, 20, and 40 mM) and the activity.” left out

Compound `OC[C@H]1OC(O)[C@H](O)[C@@H](O)[C@@H]1O` (some centres unmarked) [glucose] has a Km ([1]; 3 ml culture) of 14.3 mM, a Vmax ([1]; 3 ml culture) of 2.2 U/mg protein and a Km ([1]; 60 ml culture) of 16.6 mM. For the same compound, the Vmax ([1]; 60 ml culture) was 0.7 U/mg protein, the Vmax [2] was 0.2 U/mg protein and the Vmax ([3]; 3 ml culture) was 11.5 U/mg protein. For the same compound, the Vmax ([3]; 60 ml culture) was 13.9 U/mg protein, the Vmax ([4]; 3 ml culture) was 11.1 U/mg protein and the Vmax ([4]; 60 ml culture) was 6.9 U/mg protein. It also gave a Vmax ([5]; 3 ml culture (Table 8)) of 1.5 U/mg protein and a Vmax ([5]; 60 ml culture) of 1.5 U/mg protein.
